Assay results as given in ChEMBL document CHEMBL4392858, “Synthesis and biological evaluation of novel imidazole nucleosides as potential anti-dengue virus agents” (Bioorg Med Chem, 2019).

Assays:
[1] = Selectivity index, ratio of CC50 for cytotoxicity in BHK cells to IC50 for antiviral activity against Dengue virus 1 DGL2 replicon infected in BHK cells; assay type: toxicity, cell-based; conditions: hamster, read-out: Ratio CC50/IC50
dengue virus type 1 = assay: Antiviral activity against Dengue virus 1 DGL2 replicon infected in BHK cells assessed as inhibition of viral replicon RNA replication incubated for 72 hrs by Gaussia-luciferase reporter gene assay; assay type: functional, organism-based
[2] = Cytotoxicity in BHK cells assessed as reduction in cell viability incubated for 72 hrs by cell count reagent SF based microplate spectrophotometry; conditions: cricetinae

| SMILES | selectivity ratio [1] | IC50 (dengue virus type 1) | CC50 at 72 h [2] |
| --- | --- | --- | --- |
| C#Cc1c(C(N)=O)ncn1[C@@H]1S[C@H](CO)[C@@H](O)[C@H]1O | > 3.42 | 14.6 µM | > 50 µM |
| C#Cc1c(C#N)ncn1[C@@H]1O[C@H](CO)[C@@H](O)[C@H]1O | 7.25 | 0.55 µM | 3.99 µM |
| C#Cc1c(C#N)ncn1[C@@H]1S[C@H](CO)[C@@H](O)[C@H]1O | > 7.61 | 6.57 µM | > 50 µM |
| C#Cc1c(C(N)=O)ncn1[C@@H]1[Se][C@H](CO)[C@@H](O)[C@H]1O | – | > 20 µM | > 50 µM |
| C#Cc1c(C#N)ncn1[C@@H]1[Se][C@H](CO)[C@@H](O)[C@H]1O | > 2.24 | 22.3 µM | > 50 µM |
| C#Cc1c(C(N)=O)ncn1[C@@H]1O[C@H](CO)[C@@H](O)[C@H]1O | 4.59 | 0.27 µM | 1.24 µM |
| NC(=O)c1ncn([C@@H]2O[C@H](CO)[C@@H](O)[C@H]2O)n1 [RIBAVIRIN] | 7.35 | 6.66 µM | 49 µM |
